{"source": "ChEMBL document CHEMBL5233249", "about": "“Recent advancements in the development of heterocyclic anti-inflammatory agents” (Eur J Med Chem, 2020)", "key": {"[1]": {"target": "T1, Polyunsaturated fatty acid 5-lipoxygenase (Homo sapiens, UniProt P09917)", "T1 sequence (P09917 whole entry)": "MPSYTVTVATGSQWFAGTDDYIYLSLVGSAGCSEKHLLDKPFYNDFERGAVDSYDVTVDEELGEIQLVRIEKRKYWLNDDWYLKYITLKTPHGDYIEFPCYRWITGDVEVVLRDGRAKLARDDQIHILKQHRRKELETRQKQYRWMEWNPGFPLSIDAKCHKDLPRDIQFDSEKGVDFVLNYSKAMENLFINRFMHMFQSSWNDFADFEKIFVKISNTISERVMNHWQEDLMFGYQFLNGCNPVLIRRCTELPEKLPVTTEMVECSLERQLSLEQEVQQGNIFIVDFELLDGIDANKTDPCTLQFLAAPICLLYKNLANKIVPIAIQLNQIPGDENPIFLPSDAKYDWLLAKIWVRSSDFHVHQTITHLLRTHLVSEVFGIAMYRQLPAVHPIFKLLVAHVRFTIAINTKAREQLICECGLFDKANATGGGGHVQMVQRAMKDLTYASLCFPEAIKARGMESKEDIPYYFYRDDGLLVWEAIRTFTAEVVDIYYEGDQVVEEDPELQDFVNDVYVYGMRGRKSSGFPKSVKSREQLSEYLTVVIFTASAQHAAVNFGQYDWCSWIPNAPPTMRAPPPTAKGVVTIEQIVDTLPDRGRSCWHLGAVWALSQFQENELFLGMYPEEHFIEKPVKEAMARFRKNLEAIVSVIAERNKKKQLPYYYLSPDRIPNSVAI", "experiment": "Inhibition of 5-LOX (unknown origin) after 5 mins by colorimetric method"}, "[2]": {"target": "T2, Prostaglandin G/H synthase 1 (Ovis aries, UniProt P05979)", "T2 sequence (P05979 whole entry)": "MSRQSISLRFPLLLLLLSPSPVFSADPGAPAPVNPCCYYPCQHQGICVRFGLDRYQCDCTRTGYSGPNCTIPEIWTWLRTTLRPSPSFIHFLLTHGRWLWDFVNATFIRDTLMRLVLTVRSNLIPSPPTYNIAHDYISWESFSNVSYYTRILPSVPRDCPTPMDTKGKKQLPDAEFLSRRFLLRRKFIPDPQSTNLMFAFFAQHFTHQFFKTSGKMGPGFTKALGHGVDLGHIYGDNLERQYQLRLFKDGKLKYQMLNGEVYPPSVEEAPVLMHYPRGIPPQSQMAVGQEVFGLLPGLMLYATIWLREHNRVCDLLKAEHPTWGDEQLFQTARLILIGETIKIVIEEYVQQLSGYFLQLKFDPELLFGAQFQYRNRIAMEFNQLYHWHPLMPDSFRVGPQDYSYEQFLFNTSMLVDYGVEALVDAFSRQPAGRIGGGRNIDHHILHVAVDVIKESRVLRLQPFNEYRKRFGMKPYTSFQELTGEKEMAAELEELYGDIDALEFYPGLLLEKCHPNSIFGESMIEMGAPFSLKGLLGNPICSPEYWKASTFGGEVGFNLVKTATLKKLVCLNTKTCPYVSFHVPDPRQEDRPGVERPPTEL", "experiment": "Inhibition of ovine COX-1 by EIA method"}, "[3]": {"target": "T3, Polyunsaturated fatty acid lipoxygenase ALOX15 (Homo sapiens, UniProt P16050)", "T3 sequence (P16050 whole entry)": "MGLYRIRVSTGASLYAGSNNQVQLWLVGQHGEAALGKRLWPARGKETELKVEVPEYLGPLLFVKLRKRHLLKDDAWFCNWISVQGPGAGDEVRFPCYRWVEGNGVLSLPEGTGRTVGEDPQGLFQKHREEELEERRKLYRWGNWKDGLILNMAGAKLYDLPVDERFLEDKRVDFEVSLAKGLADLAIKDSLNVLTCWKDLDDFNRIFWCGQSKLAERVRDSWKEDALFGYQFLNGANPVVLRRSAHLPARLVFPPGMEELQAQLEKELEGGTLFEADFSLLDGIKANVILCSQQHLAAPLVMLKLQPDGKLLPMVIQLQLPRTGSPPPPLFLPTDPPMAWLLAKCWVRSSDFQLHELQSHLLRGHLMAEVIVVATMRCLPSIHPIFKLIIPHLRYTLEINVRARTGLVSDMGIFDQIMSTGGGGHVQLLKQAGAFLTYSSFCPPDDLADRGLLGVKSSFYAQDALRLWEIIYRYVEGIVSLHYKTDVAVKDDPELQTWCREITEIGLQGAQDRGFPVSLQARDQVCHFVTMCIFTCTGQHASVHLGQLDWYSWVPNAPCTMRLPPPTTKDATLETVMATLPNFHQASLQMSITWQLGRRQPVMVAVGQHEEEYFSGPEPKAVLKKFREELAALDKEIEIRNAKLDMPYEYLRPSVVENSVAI", "experiment": "Inhibition of 15-LOX (unknown origin)"}, "Rattus norvegicus [4]": {"test_system": "Rattus norvegicus", "experiment": "Anti-inflammatory activity in Carageenan-induced paw edema Wistar rat model assessed as reduction in paw edema volume relative to control", "format": "functional", "set-up": "scale not given: the % may be the effect or the level left"}, "Rattus norvegicus [5]": {"test_system": "Rattus norvegicus", "experiment": "Anti-inflammatory activity in Carrageenan-induced paw edema in Wistar albino rat assessed as inhibition of paw edema measured after 3 hr relative to control", "format": "functional", "set-up": "Activity: scale not given: the % may be the effect or the level left"}, "RAW264.7 [6]": {"test_system": "RAW264.7", "experiment": "Anti-inflammatory activity in mouse RAW264.7 cells assessed as LPS-induced reduction in decreased […] level of IL-1beta measured after 24 hrs", "format": "functional"}, "[7]": {"target": "T4, Bifunctional epoxide hydrolase 2 (Homo sapiens, UniProt P34913)", "T4 sequence (P34913 whole entry)": "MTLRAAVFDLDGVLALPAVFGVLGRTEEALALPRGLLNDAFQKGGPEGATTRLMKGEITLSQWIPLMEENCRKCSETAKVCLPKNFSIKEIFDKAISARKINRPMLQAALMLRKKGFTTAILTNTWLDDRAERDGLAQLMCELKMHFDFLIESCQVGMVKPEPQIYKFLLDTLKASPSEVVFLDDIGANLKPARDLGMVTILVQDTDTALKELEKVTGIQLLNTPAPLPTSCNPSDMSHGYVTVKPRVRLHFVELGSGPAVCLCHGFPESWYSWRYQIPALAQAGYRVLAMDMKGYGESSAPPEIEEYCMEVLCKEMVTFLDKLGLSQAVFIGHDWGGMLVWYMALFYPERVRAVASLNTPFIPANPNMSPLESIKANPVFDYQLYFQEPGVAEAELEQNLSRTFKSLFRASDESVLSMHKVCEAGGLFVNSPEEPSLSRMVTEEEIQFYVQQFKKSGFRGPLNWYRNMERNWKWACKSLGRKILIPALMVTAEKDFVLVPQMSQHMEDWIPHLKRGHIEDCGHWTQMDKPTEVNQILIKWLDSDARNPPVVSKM", "experiment": "Inhibition of human recombinant sEH"}, "Mus musculus": {"test_system": "Mus musculus", "experiment": "Anti-inflammatory activity against Carrageenan-induced paw edema in mouse model assessed as inhibition of edema at 100 mg/kg measured after 3 hrs relative to control", "format": "functional", "set-up": "scale not given: the % may be the effect or the level left"}, "[8]": {"target": "T2, Prostaglandin G/H synthase 1", "experiment": "Inhibition of ovine COX-1 at 1 uM"}, "[9]": {"target": "T5, Prostaglandin G/H synthase 2 (Homo sapiens, UniProt P35354)", "T5 sequence (P35354 whole entry)": "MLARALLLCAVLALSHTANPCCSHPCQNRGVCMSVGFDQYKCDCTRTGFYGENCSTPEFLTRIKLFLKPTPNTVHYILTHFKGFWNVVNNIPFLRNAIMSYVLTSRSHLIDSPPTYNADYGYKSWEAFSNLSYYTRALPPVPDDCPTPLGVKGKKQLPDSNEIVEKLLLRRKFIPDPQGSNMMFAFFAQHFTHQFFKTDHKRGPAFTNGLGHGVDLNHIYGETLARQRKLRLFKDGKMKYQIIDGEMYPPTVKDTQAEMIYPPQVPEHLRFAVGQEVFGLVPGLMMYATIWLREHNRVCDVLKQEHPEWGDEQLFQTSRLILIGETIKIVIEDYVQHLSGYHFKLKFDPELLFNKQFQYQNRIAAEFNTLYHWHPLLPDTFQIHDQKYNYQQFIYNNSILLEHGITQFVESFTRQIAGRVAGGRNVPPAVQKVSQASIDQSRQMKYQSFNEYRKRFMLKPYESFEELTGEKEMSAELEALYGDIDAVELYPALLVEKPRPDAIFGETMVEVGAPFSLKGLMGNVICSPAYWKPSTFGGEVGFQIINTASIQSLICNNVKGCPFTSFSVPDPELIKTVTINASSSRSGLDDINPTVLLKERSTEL", "experiment": "Inhibition of human recombinant COX-2 at 1 uM"}, "[10]": {"target": "T3, Polyunsaturated fatty acid lipoxygenase ALOX15", "experiment": "Inhibition of LOX (unknown origin) at 1 uM"}, "RAW264.7 [11]": {"test_system": "RAW264.7", "experiment": "Anti-inflammatory activity in mouse RAW264.7 cells assessed as inhibition of LPS-induced IL-6 production incubated for 1 hr by EIA relative to control", "format": "functional"}, "RAW264.7 [12]": {"test_system": "RAW264.7", "experiment": "Anti-inflammatory activity in mouse RAW264.7 cells assessed as inhibition of LPS-induced TNFalpha production incubated for 1 hr by EIA relative to control", "format": "functional"}}}
{"smiles": "O=C1c2ccccc2C(=O)N1c1nc2cc([N+](=O)[O-])ccc2n1Cc1ccc(-c2ccccc2)cc1", "values": [{"measurement": "IC50", "setting": "[1]", "result": 320, "unit": "nM"}, {"measurement": "IC50", "setting": "[2]", "result": 9850, "unit": "nM"}, {"measurement": "IC50", "setting": "[3]", "result": 1020, "unit": "nM"}, {"measurement": "Activity", "setting": "Rattus norvegicus [4]", "result": 81.88, "unit": "%"}]}
{"smiles": "COc1c2occc2c(OC)c2c(C)c(/C(=N/c3cc(N4CCNCC4)nc(N4CCNCC4)n3)N3CCNCC3)oc12", "values": [{"measurement": "IC50", "setting": "[2]", "result": 4150, "unit": "nM"}, {"measurement": "Activity", "setting": "Rattus norvegicus [5]", "result": 68, "unit": "%"}, {"measurement": "Activity", "setting": "RAW264.7 [6]", "result": 30, "unit": "pg/mL"}]}
{"smiles": "O=C(O)c1ccc(CSc2nc3cc(F)c(-c4ncn[nH]4)cc3[nH]2)cc1", "values": [{"measurement": "IC50", "setting": "[7]", "result": 700, "unit": "nM"}, {"measurement": "Activity", "setting": "Mus musculus", "result": 66.3, "unit": "%"}]}
{"smiles": "COc1ccc(-c2nc3c(C(N)=O)cccc3[nH]2)cc1", "values": [{"measurement": "IC50", "setting": "[8]", "result": 980, "unit": "nM"}, {"measurement": "IC50", "setting": "[9]", "result": 11600, "unit": "nM"}, {"measurement": "IC50", "setting": "[10]", "result": 9510, "unit": "nM"}, {"measurement": "inhibition (INH)", "setting": "RAW264.7 [11]", "result": 91, "unit": "%"}, {"measurement": "inhibition (INH)", "setting": "RAW264.7 [12]", "result": 91, "unit": "%"}]}
